Data as given in ChEMBL document CHEMBL1159341, “Bistratamides E-J, modified cyclic hexapeptides from the Philippines ascidian Lissoclinum bistratum” (J Nat Prod, 2003).
Values after ≈ are worked out from the molar mass of the structure shown.

Test system: HCT-116
Test: Cytotoxicity against human HCT116 cells
Type: functional, cell-based

SMILES | IC50
Cc1oc2nc1C(=O)N[C@@H](C(C)C)c1nc(cs1)C(=O)N[C@@H](C(C)C)c1nc(cs1)C(=O)N[C@H]2C(C)C [BISTRATAMIDE H] | 1.7 µg/mL (≈ 3.12 µM)
Cc1oc2nc1C(=O)N[C@@H](C(C)C)c1nc(co1)C(=O)N[C@@H](C(C)C)c1nc(cs1)C(=O)N[C@H]2C(C)C [BISTRATAMIDE G] | 5 µg/mL (≈ 9.46 µM)
CC(C)[C@@H]1NC(=O)[C@H]2N=C(O[C@@H]2C)[C@H](C(C)C)NC(=O)c2csc(n2)[C@H](C(C)C)NC(=O)[C@@H]2COC1=N2 [BISTRATAMIDE F] | 28 µg/mL (≈ 52.6 µM)
CC(C)[C@@H]1NC(=O)c2csc(n2)[C@H](C(C)C)NC(=O)c2csc(n2)[C@H](C(C)C)NC(=O)[C@H]([C@@H](C)O)NC1=O [BISTRATAMIDE J] | 1 µg/mL (≈ 1.77 µM)
CC(C)[C@@H]1NC(=O)c2csc(n2)[C@H](C(C)C)NC(=O)c2coc(n2)[C@H](C(C)C)NC(=O)[C@H]([C@@H](C)O)NC1=O [BISTRATAMIDE I] | 9 µg/mL (≈ 16.4 µM)
CC(C)[C@@H]1NC(=O)c2csc(n2)[C@H](C(C)C)NC(=O)c2csc(n2)[C@H](C(C)C)NC(=O)[C@H]2N=C1O[C@@H]2C [BISTRATAMIDE E] | 7.9 µg/mL (≈ 14.4 µM)
